From patent US6057324A, “Substituted amidinobenzene derivatives and medicinal compositions thereof” (Yamanouchi Pharmaceutical Co., Ltd, priority 1996, dated 2000)

Experiments:
[1] = Metabolic test of an active body (Compound A) in plasma after oral administration to beagle dogs; assay type: in vivo; settings: 10 mg/kg
Procedure: Compound of Example 2 of the present invention was administered to three beagle dogs orally at a dose of 10 mg/kg as an aqueous solution and then blood was withdrawn over 48 hours after administration. After centrifugation, plasma was separated and then stored at -20° C. until analysis. Compound A (compound name: 4-[4-(4-amidinophenyl)-3-oxo-1-piperazinyl]-1-piperidineacetic acid, an unexamined published Japanese patent application No. 8-333342), which is an active body produced as a metabolite of Compound of Example 2, was determined by the high performance liquid chromatography method to obtain the pharmacokinetic parameters. Compound A was also administered to the same beagle dogs at a dose of 10 mg/kg, and then plasma Compound A concentration was measured. Pharmacokinetic parameters of Compound A after the administration of Compound of Example 2 and Compound A were compared-with each other. In Table 1 it is shown the pharmacokinetic parameters of plasma Compound A after oral administration, and in FIG. 1 it is shown the plasma concentration-time profile of Compound A after oral administration.
Table 1 represents Pharmacokinetic parameters of plasma Compound A after oral administration of Compound of Example 2 and Compound A to beagle dogs at a dose of 10 mg/kg (mean of three animals±standard deviation) and FIG. 1 represents plasma concentration-time profile of Compound A.

platelets = assay: Ex vivo platelet aggregation-inhibiting activity in cynomolgus monkeys; settings: 1 mg/kg via stomach tube, triggers 20 μM ADP and 10 μg/ml collagen
Procedure: Cynomolgus monkeys that had been lightly anesthetized by intramuscular administration of ketamine hydrochloride were fixed on a work-bench, and a sample compound of the present invention dissolved or suspended in a methylcellulose solution was administered into the stomach via a stomach tube at a dose of 1 mg/kg. Before the administration and after the administration at a predetermined period of time, 3 ml (containing 1/10 times by volume of sodium citrate) of the blood was collected from the animal through the femoral vein. From the blood, platelet-rich-plasma (PRP) was obtained according to the method of De Marco et al's (see J. clin. Invest., 77, 1272-1277, 1986). The PRP was adjusted at 3×10^8 /ml with an automatic blood cell counter (MEK-5158 Model, produced by Nihon Koden Co.) before use. Then, 20 μM of ADP and 10 μg/ml of bovine tendon-derived collagen (produced by Niko Bioscience Co.) as triggers to cause the aggregation of the platelets. The degree of the aggregation of the platelets was measured with a platelet aggregation meter (NBS Hematracer 801, produced by Niko Bioscience Co.). The platelet aggregation-inhibiting activity of the tested compound was represented by the inhibition percentage (%) relative to the maximum aggregation percentage of each animal before the addition of the test compound.
The test results are shown in Table 2 together with the results of the Compound A which is the active body of the compounds of the present invention.

Structure (SMILES)	AUC(0-t) at 48 h ([1]; dog, plasma, mean of three animals ± standard deviation, analyte Compound A, read-out: AUC0-48 (area under the time-concentration curve in plasma over 48 hours) of Compound A) [ng·h/mL]	Cmax ([1]; dog, plasma, mean of three animals ± standard deviation, analyte Compound A, read-out: Cmax (maximum plasma concentration) of plasma Compound A) [ng/mL]	Tmax ([1]; dog, plasma, mean of three animals ± standard deviation, analyte Compound A, read-out: Tmax (time to reach Cmax) of plasma Compound A) [h]	half-life ([1]; dog, plasma, mean of three animals ± standard deviation, analyte Compound A, read-out: t1/2 (elimination half life) of plasma Compound A (converted)) [min]	Platelet aggregation-inhibiting ratio after 3 hours (platelets) [%]	Platelet aggregation-inhibiting ratio after 6 hours (platelets) [%]	Platelet aggregation-inhibiting ratio after 9 hours (platelets) [%]	bioavailability of Compound A when administered as prodrug (in words) [1]	plasma residence time of Compound A when administered as prodrug (in words) [1]	t1/2 of Compound A compared with administration of Compound A (in words) [1]	Platelet aggregation-inhibiting ratio after 12 hours (platelets) [%]	Platelet aggregation-inhibiting ratio after 24 hours (platelets) [%]
N=C(N)c1ccc(N2CCN(C3CCN(CC(=O)O)CC3)CC2=O)cc1 [Compound A, 4-[4-(4-amidinophenyl)-3-oxo-1-piperazinyl]-1-piperidineacetic acid]	3550 ± 838	748 ± 175	1.7 ± 0.6	126	19.7 ± 9.4	16.3 ± 7.5	14.2 ± 5.9					
CCOC(=O)CN1CCC(N2CCN(c3ccc(C(=N)NO)cc3)C(=O)C2)CC1 [Example 2, ethyl 4-[4-(4-hydroxyamidinophenyl)-3-oxo-1-piperazinyl]-1-piperidineacetate]					24.7 ± 23.7	66.3 ± 15.4	88.0 ± 11.0	increase	increase	greatly prolonged	89.0	54.0 ± 9.0
CCOC(=O)CN1CCC(N2CCN(c3ccc(C(=N)NC(=O)OC)cc3)C(=O)C2)CC1 [Example 7, Ethyl 4-[4-(4-methoxycarbonylamidinophenyl)-3-oxo-1-piperazinyl]-1-piperidineacetate]					9.0 ± 5.7	42.0 ± 14.7	60.0 ± 15.6				64.3	26.0 ± 2.9
